Test results taken from patent US8853246B2 (Dow AgroSciences LLC, priority 2009, dated 2014).
Read-outs that look alike come from different tables or passages of the source.

Columns and labels:
[1] = system: Green Peach Aphid (Myzus Persicae); test: Insecticidal test for green peach aphid in foliar spray assay (col. MYZUPE); assay type: in vivo; settings: for pest or weed control at 200 ppm: Myzus persicae, 72 h, read-out: MYZUPE 200 ppm (Corrected % Control, rating)
Protocol: (§1) The compounds were tested against cotton aphid, green peach aphid, and sweet potato whitefly using procedures described in the following examples and reported in Table 2.
(§2) In each case of Table 2, the rating scale is as follows at 200 ppm.
Insecticidal Test for Green Peach Aphid (Myzus Persicae) in Foliar Spray Assay
Cabbage seedlings grown in 3-inch pots, with 2-3 small (3-5 cm) true leaves, were used as test substrate. The seedlings were infested with 20-50 green peach aphids (wingless adult and nymph) one day prior to chemical application. Four pots with individual seedlings were used for each treatment. Compounds (2 mg) were dissolved in 2 mL of acetone/methanol (1:1) solvent, forming stock solutions of 1000 ppm. The stock solutions were diluted 5× with 0.025% Tween 20 in H2O to obtain a test solution at 200 ppm. A hand-held Devilbiss sprayer was used for spraying a solution to both sides of cabbage leaves until runoff. Reference plants (solvent check) were sprayed with the diluent only. Treated plants were held in a holding room for three days at approximately 25° C. and 40% relative humidity (RH) prior to grading. Evaluation was conducted by counting the number of live aphids per plant under a microscope. Corrected % Control=100*(X−Y)/X • where X=No. of live aphids on solvent check plants • Y=No. of live aphids on treated plants

[2] = system: Sweetpotato Whitefly-Crawler (Bemisia Tabaci); test: Insecticidal test for sweetpotato whitefly-crawler in foliar spray assay (col. BEMITA); assay type: in vivo; settings: for pest or weed control at 200 ppm: Bemisia tabaci, read-out: BEMITA 200 ppm (Corrected % Control, rating)
Protocol: as §1, §2
Insecticidal Test for Sweetpotato Whitefly-Crawler (Bemisia Tabaci) in Foliar Spray Assay
Cotton plants grown in 3-inch pots, with 1 small (3-5 cm) true leaf, were used as test substrate. The plants were placed in a room with whitefly adults. Adults were allowed to deposit eggs for 2-3 days. After a 2-3 day egg-laying period, plants were taken from the adult whitefly room. Adults were blown off leaves using a hand-held Devilbiss sprayer (23 psi). Plants with egg infestation (100-300 eggs per plant) were placed in a holding room for 5-6 days at 82° F. and 50% RH for egg hatch and crawler stage to develop. Four cotton plants were used for each treatment. Compounds (2 mg) were dissolved in 1 mL of acetone solvent, forming stock solutions of 2000 ppm. The stock solutions were diluted 10× with 0.025% Tween 20 in H2O to obtain a test solution at 200 ppm. A hand-held Devilbiss sprayer was used for spraying a solution to both sides of cotton leaf until runoff. Reference plants (solvent check) were sprayed with the diluent only. Treated plants were held in a holding room for 8-9 days at approximately 82° F. and 50% RH prior to grading. Evaluation was conducted by counting the number of live nymphs per plant under a microscope. Insecticidal activity was measured by using Abbott's correction formula and presented in Table 2 (see col. “BEMITA”): Corrected % Control=100*(X−Y)/X • where X=No. of live nymphs on solvent check plants • Y=No. of live nymphs on treated plants Pesticidally Acceptable Acid Addition Salts, Salt Derivatives, Solvates, Ester Derivatives, Polymorphs, Isotopes and Radionuclides

| SMILES | pest or weed control at 200 ppm ([1]; green peach aphid) [%] | pest or weed control at 200 ppm ([2]; sweetpotato whitefly-crawler) [%] | other results |
| --- | --- | --- | --- |
| CN(C(=O)c1ccc(=O)n(C)n1)c1sc(-c2cccnc2)nc1Cl [Compound 405] | – | – | MYZUPE 200 ppm (Corrected % Control, rating) ([1]; green peach aphid): A (80-100); BEMITA 200 ppm (Corrected % Control, rating) ([2]; sweetpotato whitefly-crawler): B (Less than 80) |
| CC(=O)c1ccc(C(=O)N(C)c2sc(-c3cccnc3)nc2C)s1 [Compound 350] | < 80 | < 80 | – |
| CC(C)C(=O)N1CCCC(C(=O)N(C)c2sc(-c3cccnc3)nc2Cl)C1 (stereo not drawn) [Compound 411] | 80 to 100 | 80 to 100 | – |
| CCN(C(=O)C(C)C(C)SC)c1sc(-c2cccnc2)nc1Cl (stereo not drawn) [Compound 538] | – | – | pest or weed control at 200 ppm ([1]; Abbott's correction formula): 80 to 100%; pest or weed control at 200 ppm ([2]; Abbott's correction formula): 80 to 100% |
| CSCC(C)(C)C(=O)N(C)c1sc(-c2cccnc2)nc1C(F)(F)F [Compound 45] | < 80 | 80 to 100 | – |
| Cc1nc(-c2cccnc2)sc1N(C)C(=O)C(C)C[S+](C)[O-] (stereo not drawn) [Compound 87] | 80 to 100 | 80 to 100 | – |
| CSCC(C)C(=O)N(C)c1sc(-c2cncc(F)c2)nc1Br (stereo not drawn) [Compound 354] | 80 to 100 | 80 to 100 | – |
| CCN(C(=O)CCSc1ccccc1)c1sc(-c2cccnc2)nc1C [Compound 321] | 80 to 100 | < 80 | – |
| CSCC(C)C(=O)N(Cc1ccccc1)c1sc(-c2cccnc2)nc1C (stereo not drawn) [Compound 221] | 80 to 100 | < 80 | – |
| CCN(C(=O)CCSC(C)C)c1sc(-c2cccnc2)nc1C [Compound 323] | 80 to 100 | < 80 | – |
| CCN(C(=O)CCSC)c1sc(-c2cncc(F)c2)nc1F [Compound 425] | 80 to 100 | 80 to 100 | – |
| CSC(C)(C)CC(=O)N(C)c1sc(-c2cncc(F)c2)nc1Cl [Compound 443] | – | – | pest or weed control at 200 ppm ([1]; Abbott's correction formula): 80 to 100%; pest or weed control at 200 ppm ([2]; Abbott's correction formula): 80 to 100% |
| CSCC(C)C(=O)Nc1sc(-c2cncc(F)c2)nc1Br (stereo not drawn) [Compound 299] | 80 to 100 | 80 to 100 | – |
| CN(C(=O)C1=CC(=O)CC(C)(C)O1)c1sc(-c2cccnc2)nc1Cl [Compound 328] | < 80 | < 80 | – |
| CCN(C(=O)CCSC)c1sc(-c2cccnc2)nc1-c1ccccc1 [Compound 61] | < 80 | < 80 | – |
| CCN(C(=O)OC(C)(C)C)c1sc(-c2cncc(F)c2)nc1Br [Compound 303] | < 80 | 80 to 100 | – |
| CCN(C(C)=O)c1sc(-c2cccnc2)nc1Cl [Compound 533] | – | – | pest or weed control at 200 ppm ([1]; Abbott's correction formula): 80 to 100%; pest or weed control at 200 ppm ([2]; Abbott's correction formula): 80 to 100% |
| CCN(C(=O)CCS(C)(=O)=O)c1sc(-c2cccnc2)nc1Cl [Compound 315] | 80 to 100 | 80 to 100 | – |
| CSCC(C)C(=O)Nc1sc(-c2cncc(C)c2)nc1C (stereo not drawn) [Compound 171, 2-methyl-N-[4-methyl-2-(5-methyl-pyridin-3-yl)-thiazol-5-yl]-3-methylsulfanyl-propionamide] | 80 to 100 | < 80 | – |
| CSCCC(=O)N(C)c1sc(-c2cncc(F)c2)nc1C [Compound 38] | 80 to 100 | 80 to 100 | – |
| CSCC(C)C(=O)N(CC(C)C)c1sc(-c2cccnc2)nc1C (stereo not drawn) [Compound 223] | 80 to 100 | 80 to 100 | – |
| CN(C(=O)CCS(C)(=O)=O)c1sc(-c2cccnc2)nc1Cl [Compound 246] | 80 to 100 | 80 to 100 | – |
| CN(C(=O)OCc1ccc([N+](=O)[O-])o1)c1cnc(-c2cncc(F)c2)s1 [Compound 77, [2-(5-Fluoropyridin-3-yl)-thiazol-5-yl]-methyl-carbamic acid 5-nitro-furan-2-ylmethyl ester] | 80 to 100 | < 80 | – |
| CSC(C)CC(=O)N(C)c1sc(-c2cncc(F)c2)nc1C (stereo not drawn) [Compound 213] | 80 to 100 | 80 to 100 | – |
